Results as given in patent US20120269815A1, “NEUROTROPHINS AND USES THEREOF” (Regents of the University of Minnesota, priority 2008, published 2012).
No end group written: not given here.

Legend:
GT1-1 cells = conditions: 24 hr serum deprivation, 3.6 μM peptide
Procedure: GT1-1 cell survival assays: GT1-1 cells are immortalized cell line derived from mouse embryonic hypothalamus (a gift from Dr. Richard Weiner, UCSF).
a) Suppression of TUF1 expression by RNAi GT1-1 cells were seeded at 100,000 cells/well in a 12-well plate (as described in Example 1) and incubated for 72 hours at 37° C. supplemented with 5% CO2. Fresh growth media were added for at least 1 hour before cells were transfected with negative control RNAi or TUF1-specific RNAi (150 picomoles diluted in OptiMEM, Stealth RNAi, Invitrogen Corp., Carlsbad, Calif.) using Fugene6 (1.5 μl/200 μl medium, Roche Diagnostics Corp., Indianapolis, Ind.) and incubated overnight. […] Cells were then lifted from the well by adding Trypsin-EDTA (Invitrogen Corp., Carlsbad, Calif.) and surviving cells were counted by Trypan Blue exclusion using a hemocytometer and an inverted microscope. […]
b) Repression of TUF1 activity by anti-TUF1 peptide antibody (IgG) GT1-1 cells were seeded at 100,000 cells/well and incubated for 72 hours as described above. […] Surviving cells were lifted from wells and counted as described in part (a). […]
Cells were treated with serum-free media supplemented with 0.0 μg/ml, 2.5 μg/ml (1.8 μM), or 5.0 μg/m (3.6 μM) TUF1 peptide. Surviving cells were counted at 24 hours, 48 hours, and 72 hours of incubation as described in part (a). […]

p75^NTR = molecular target: T1, p75^NTR (Homo sapiens, UniProt P08138); assay: Fluorescence-labeled TUF1 peptide binding to COS7 cells expressing p75NTR; conditions: labeled peptide 5 nM, 90 min, COS7 cells transfected with pCMV-SPORT6-p75
T1 construct: host or cells: COS7
T1 sequence (P08138 29-427): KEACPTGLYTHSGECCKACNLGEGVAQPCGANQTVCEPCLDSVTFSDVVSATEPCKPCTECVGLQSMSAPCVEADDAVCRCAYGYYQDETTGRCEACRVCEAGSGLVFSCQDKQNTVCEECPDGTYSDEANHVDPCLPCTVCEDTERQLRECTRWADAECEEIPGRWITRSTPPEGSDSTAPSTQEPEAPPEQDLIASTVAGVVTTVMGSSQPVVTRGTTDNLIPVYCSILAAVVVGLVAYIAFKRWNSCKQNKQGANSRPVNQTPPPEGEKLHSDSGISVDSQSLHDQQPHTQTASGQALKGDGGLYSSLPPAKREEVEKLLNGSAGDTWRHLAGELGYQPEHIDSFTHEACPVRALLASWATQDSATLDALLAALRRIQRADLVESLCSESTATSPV
Procedure: (§1) COS7 cells were seeded at 10,000 cells/well onto a 18 mm coverslip in a 12-well plate. Cells were allowed to settle overnight in a cell culture incubator (NuAire NU-8600, NuAire, Inc., Plymouth, Minn.) set at 37° C. and 5% CO2. Cells were transfected with pCMV-eGFP (Clontech Laboratories, Inc., Mountain View, Calif.) or pCMV-SPORT6-p75 (ATCC) using Fugene HD (Roche Diagnostics Corp., Indianapolis, Ind.) and were incubated overnight. The binding assays were carried out according to Horton et al. with modifications. Synthetic TUF1 peptides (TUF1[43-54] (SEQ ID NO:1) and TUF1[24-40] (SEQ ID NO:3) were generated (via Sigma Genosys, Sigma-Aldrich Co. St. Louis, Mo.) and were conjugated per manufacturer's recommendation with DyLight 549 NHS Ester (Thermo Fisher Scientific, Waltham, Mass.), which have similar spectra to Cy3 dye. Unconjugated dye was removed with a dye removal column (Thermo Fisher Scientific, Waltham, Mass.). Labeled peptides were diluted to 5 nM in 0.15 M Sucrose/PBS and added (1.0 ml/well) to transfected COS7 cells. The binding reaction was incubated in the dark at room temperature for 90 minutes. Cells were rinsed thoroughly with PBS+0.05% Tween-20 to remove unbound peptide. Cells were then fixed with 4% Paraformaldehyde (5 minutes).
Following fixation, cells were permeabilized in PBS+0.1% Tween-20 for 10 minutes, rinsed thoroughly with PBS, and blocked in BSA (10 mg/ml) for 10 minutes. Cells were incubated with rabbit anti-p75^NTR antibody (1:10,000 dilution) for 30 minutes. Excess antibody was removed with PBS washes. Cells were then incubated with Alexa-488 goat anti-rabbit antibody (1:500 dilution, Invitrogen). Cells were again rinsed thoroughly with PBS and mounted in Vectashield mounting media plus DAPI (Vector Laboratories, Inc., Burlingame, Calif.).
COS7 cells were seeded at 10,000 cells/well onto an 18 mm coverslip in a 12-well plate. Cells were allowed to settle overnight in a cell culture incubator (NuAire NU-8600, NuAire, Inc., Plymouth, Minn.) set at 37° C. and 5% CO2. Cells were transfected with pCMV-eGFP (Clontech Laboratories, Inc., Burlingame, Calif.) or pCMV-SPORT6-p75 (ATCC) using Fugene HD (Roche Diagnostics Corp., Indianapolis, Ind.) and were incubated overnight. The binding assays were carried out according to Horton et al. with modifications. Synthetic TUF1 peptides (TUF1[43-54] (SEQ ID NO:1) and TUF1[24-40] (SEQ ID NO:3)) were generated (via Sigma Genosys, Sigma-Aldrich, St. Louis, Mo.) and were conjugated per manufacturer's recommendation with DyLight 549 NHS Ester (Thermo Fisher Scientific Inc., Waltham, Mass.), which have similar spectra to Cy3 dye. Unconjugated dye was removed with a dye removal column (Thermo Fisher Scientific Inc., Waltham, Mass.). Labeled peptides were diluted to 5 nM in 0.15M Sucrose/PBS and added (1.0 ml/well) to transfected COS7 cells. The binding reaction was incubated in the dark at room temperature for 90 min. Cells were rinsed thoroughly with PBS+0.05% Tween-20 to remove unbound peptide. Cells were then fixed with 4% Paraformaldehyde (5 minutes).
Following fixation, cells were permeabilized in PBS+0.1% Tween-20 for 10 minutes, rinsed thoroughly with PBS, and blocked in BSA (10 mg/ml) for 10 minutes. Cells were incubated with rabbit anti-p75^NTR antibody (1:10,000 dilution) for 30 minutes. Excess antibody was removed with PBS washes. Cells were then incubated with Alexa-488-goat anti-rabbit antibody (1:500 dilution, Invitrogen Corp., Carlsbad, Calif.). […]

[1] = test system: unknown receptor expressed in COS7 cell; assay: Fluorescence-labeled TUF1 peptide binding to control (pCMV-GFP) COS7 cells; conditions: labeled peptide 5 nM, COS7 cells transfected with pCMV-GFP
Procedure: as §1, with “minutes). […]” for “minutes).”

- binding to p75^NTR (p75^NTR; listed as TUF1^43-54): found to bind the p75^NTR
Sequence: AYKSYVRALPLL [TUF1[43-54]]
- effect on cell survival (GT1-1 cells): no effect
- binding to p75^NTR (p75^NTR): binds more readily to p75 neurotrophic receptor
- binding to p75^NTR (p75^NTR; listed as TUF1 peptide): binds p75 receptor expressed in COS cells
- binding to unknown receptor expressed in COS7 cell [1]: binds to an unknown receptor expressed in COS7 cell at a low level
